Source: patent US20230293412A1, “SHAMPOOS AND METHODS OF PREPARING AND USING THE SAME” (SHANDONG BENZHEN COSMETICS CO., LTD, priority 2020, published 2023)

Experiments:
[1] = Surface tension of surfactants diluted 200 and 6000 times; type: physicochemical; details: 25° C.; for Surface tension 1:200: surfactant diluted 200 times with triple distilled water; for Surface tension 1:6000: surfactant diluted 6000 times with triple distilled water
Procedure: We classify surfactants into three types: anionic surfactants, zwitterionic surfactants, and nonionic surfactants. Experimental studies on the surface tension and acute toxicity of fish were conducted on the above-mentioned main surfactants and other kinds of surfactants used in shampoo, bath and other care products.
(§1) Test method. The experimental environment is at a constant temperature of 25° C., the surfactants is diluted 200 and 6000 times with triple distilled water. The surface tension is tested by JY-200C full-automatic interfacial tensiometer, referring to (GB5545 Surfactant Determination of surface tension by pulling up liquid film). The fish acute toxicity test is carried out tin the aqueous solution diluted 6000 times with surfactant, referencing to (GB/T 21281-2007 fish acute toxicity test classification test method of hazardous chemicals).

fish = assay: Fish acute toxicity test of surfactants; type: in vivo; details: for survival time: fish in aqueous solution of surfactant diluted 6000 times, 25° C.; for fish survival: fish in surfactant solution at 1:6000
Procedure: as §1

Row | Compound | Surface tension 1:200 [1] [mN/m] | Surface tension 1:6000 [1] [mN/m] | survival time (fish) [min] | fish survival (fish) [h]
1 | CCCCCCCCCCCC(=O)N(C)CC(=O)[O-].[Na+] [Shampoo 4202, Sodium lauroyl sarcosinate (30%)] | 27.9 | 64.8 | >1440 | 24
2 | CCCCCCCCCCCCOS(=O)(=O)[O-].[Na+] [Shampoo K12, Sodium lauryl sulfate] | 35.0 | 40.8 | – | –
3 | CCCCCCCCCCCCOS(=O)(=O)O.N [Shampoo K12-A, ammonium lauryl sulfate] | 26.7 | 38.9 | – | –
4 | Alkyl glycoside (C8-C10) [APG1] | 28.3 | 47.3 | 33 | –
5 | Alkyl glycoside (C12-C14) [APG2] | 28.2 | 28.5 | 25 | –
6 | Alkyl glycoside (import) [APGj] | 28.1 | 28.6 | 25 | –
7 | Coconut oil fatty acid diethanolamide [Shampoo 6501] | 26.0 | 27.6 | 44 | –
8 | Fatty alcohol polyoxyethylene ether [AEO-3] | 27.2 | 27.3 | 27 | –
9 | Fatty alcohol polyoxyethylene ether [AEO-7] | 27.6 | 29.3 | 21 | –
10 | Fatty alcohol polyoxyethylene ether [AEO-9] | 30.2 | 30.4 | 18 | –
11 | Imidazoline (import) [ZMLj] | 28.5 | 31.3 | 64 | –
12 | Imidazoline [MZL] | 29.1 | 45.5 | 134 | –
13 | Lauramide propyl amine oxide [Shampoo 4501] | 30.5 | 31.2 | 15 | –
14 | Methyl glucose dioleate [DOE-120] | 42.6 | 49.4 | >1440 | 24
15 | Sodium Cocoyl Isethionate-85 [SCI-85] | 30.6 | 42.8 | 24 | –
16 | Sodium dodecyl ether phosphate [Shampoo 1211] | 35.2 | 40.5 | 284 | –
17 | Sodium secondary alkyl sulfonate [SAS] | 31.3 | 41.5 | 41 | –
18 | Sodium α-alkenyl sulfonate [AOS] | 31.8 | 41.8 | – | –
19 | Sulfobetaine [ASB] | 35.3 | 47.5 | 42 | –
20 | ammonium laureth ether sulfate [AES-A] | 34.9 | 32.9 | – | –
21 | cocamidopropyl betaine [CAB] | 31.3 | 32.4 | 27 | –
22 | sodium laureth ether sulfate [AES] | 36.4 | 36.2 | – | –
